This passage reports EC50 results from US12454525B2, “IL4I1 inhibitors and methods of use” (Merck Sharp & Dohme LLC, priority 2020, dated 2025).

In this test the target is T1, recombinant IL4I1 (Homo sapiens, UniProt Q96RQ9).
T1 construct: purchased R&D Systems 5684-AO-020
T1 sequence (Q96RQ9 22-567): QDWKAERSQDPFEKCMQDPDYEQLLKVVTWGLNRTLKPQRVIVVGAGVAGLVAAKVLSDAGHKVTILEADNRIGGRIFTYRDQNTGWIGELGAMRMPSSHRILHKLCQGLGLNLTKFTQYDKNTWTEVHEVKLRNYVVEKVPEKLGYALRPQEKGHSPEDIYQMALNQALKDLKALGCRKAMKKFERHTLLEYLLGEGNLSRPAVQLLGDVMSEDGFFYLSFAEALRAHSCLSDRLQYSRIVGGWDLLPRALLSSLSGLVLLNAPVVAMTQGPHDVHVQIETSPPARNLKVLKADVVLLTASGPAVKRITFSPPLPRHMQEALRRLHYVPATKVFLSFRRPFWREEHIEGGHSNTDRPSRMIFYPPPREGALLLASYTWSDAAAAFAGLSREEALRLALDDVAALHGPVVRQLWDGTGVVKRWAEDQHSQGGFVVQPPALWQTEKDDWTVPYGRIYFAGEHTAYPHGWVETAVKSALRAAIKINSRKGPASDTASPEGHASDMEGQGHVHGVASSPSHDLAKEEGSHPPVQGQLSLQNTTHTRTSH
The test is described as follows: IL4I1 Enzymatic Assay (Amplex Red/HRP coupled H2O2 detection). The format is biochemical. Conditions: 240 min; four-hour pre-incubation with compound; 1 nM IL4I1, 1 mM each Phe/Tyr/Trp; ten-point titration; fluorescence readout; read-out: Potency EC50 (nM) (240 min). The method, boiled down:
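Recombinant IL4I1 at 1 nM final, pre-incubated 4 h with compound (0.1% DMSO) at ambient temperature in 50 mM Hepes pH 7.0, 0.005% Tween20; 1 mM each Phe/Tyr/Trp, 120 min, H2O2 read via Amplex Red/HRP fluorescence (544/590 nm). EC50 from ten-point four-parameter fit.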
Turning to `CS(=O)(=O)NC[C@H]1CC[C@H](Cn2c(=O)[nH]c3ccccc32)CC1` [Example 98, N-(((1r,4r)-4-((2-oxo-2,3-dihydro-1H-benzo[d]imidazol-1-yl)methyl)cyclohexyl)methyl)methanesulfonamide], the 50% effective concentration (EC50) came out at 1570 nM.
As for `CC[C@@H](NC(C)=O)c1ccc(Cn2c(=O)[nH]c3ccccc32)cc1` [Example 16, (R)-N-(1-(4-((2-oxo-2,3-dihydro-1H-benzo[d]imidazol-1-yl)methyl)phenyl)propyl)acetamide], the figure is 24 nM.
Turning to `O=c1[nH]c2ccsc2n1Cc1ccccc1` [Example 113, 3-benzyl-1,3-dihydro-2H-thieno[2,3-d]imidazol-2-one], the EC50 was 2850 nM.
`O=C1CCCN1Cc1ccc(Cn2c(=O)[nH]c3ccc(F)cc32)cc1` (single isomer, unassigned) [Example 84, 6-fluoro-1-(4-((2-oxopyrrolidin-1-yl)methyl)benzyl)-1,3-dihydro-2H-benzo[d]imidazol-2-one]: the EC50 was 10 nM.
As for `CC(=O)NCc1sc(Cn2c(=O)[nH]c3ccccc32)cc1Cl` [Example 38, N-((3-chloro-5-((2-oxo-2,3-dihydro-1H-benzo[d]imidazol-1-yl)methyl)thiophen-2-yl)methyl)acetamide], the figure is 6 nM.
